Tests used:
[1] = tested on: Parent elite stiff stalk inbred corn; test: Postemergence herbicide application to potted corn (fresh weight, visual injury); type: in vivo; conditions: 3472 g ae/ha
[2] = tested on: Heterozygous GAT-HRA corn; test: as above; type: in vivo; conditions: 3472 g ae/ha
[3] = tested on: Hairy Fleabane (Conyza bonariensis), glyphosate sensitive biotype; test: Control of hairy fleabane by glyphosate, metsulfuron-methyl and two additives; type: in vivo; conditions: glyphosate on its own
Method: This example included the same treatments as used in Example 11, except the treatments were carried out on a glyphosate sensitive biotype of Kleinskraalhans (Conyza bonariensis).

[4] = tested on: GAT-HRA transgenic cotton plants; test: Greenhouse over-the-top herbicide spray of cotton; type: in vivo, Gossypium hirsutum; conditions: glyphosate 1.5 lb acid equivalent per acre; 14 days after application
From the text: (§1) Cotton (Gossypium hirsutum) Coker 312 was transformed with a GAT polynucleotide (gat 4621) together with an Hra polynucleotide (SEQ ID NO:86) both operably linked to strong, constitutive plant viral promoters. The promoter linked to gat4621 contains a duplicated portion of the Strawberry Vein Banding Virus transcript promoter (Wang et al. Virus Genes 20: 11-17, 2000; Genbank X97304). The Hra gene was driven by a duplicated portion of the Mirabilis Mosaic Caulimovirus full-length transcript promoter (U.S. Pat. No. 6,420,547; Dey and Maiti, Transgenics 3:61-70, 1999). The transformation procedure used Agrobacterium tumefaciens containing an expression cassette with the genes to be transferred and cotyledon explant derived callus with some capacity to undergo embryogenesis. The callus was exposed to Agrobacterium for 48-72 hours. The callus was then exposed to selection for transformed cells on 50-200 μg/l chlorosulfuron and/or 50-450 μM glyphosate in solid medium. Glyphosate can also be used in a concentration range of about 5 to about 450 μM. Selection was applied until somatic embryos formed, and selection was again applied at the embryo germination step, and optionally during rooting of plantlets. Over 450 GAT-HRA transformation events were produced using selection with both chlorsulfuron and glyphosate.
(§2) Transformed cotton plants were rooted and then transferred to soil for further growth. Plants were then subjected to herbicide spray treatments in a greenhouse. […] Untransformed Coker 312 control plants were dead 2 weeks after glyphosate application. […] Plants transformed with both GAT and HRA were further subjected to an “over the top” application of the sulfonylurea herbicide rimsulfuron at a rate of 16 g active ingredient/hectare. […] In further experiments 32 g ai/ha rimsulfuron were applied to the cotton.

[5] = tested on: Untransformed Coker 312 cotton plants; test: Greenhouse over-the-top herbicide spray of cotton; type: in vivo, Gossypium hirsutum
From the text: as §1, §2

[6] = tested on: infected GS3 embryos with the GAT construct; test: Glyphosate selection of infected embryos; type: cell-based, maize; conditions: 1.0 mM or 2.0 mM glyphosate in medium; about 40 days culture
Method: (§3) A glyphosate kill curve was established by testing non-transformed embryos response on media with different levels of glyphosate. GS3 embryos were isolated from an immature ear and placed onto media containing glyphosate at 0.0, 0.5, 1.0, and 2.0 mM. After about 40 days culture, the response of the embryos were observed and recorded. Similarly, infected GS3 embryos with the GAT construct were placed onto media containing glyphosate at 0.0, 0.5, 1.0, and 2.0 mM. After about 40 days culture, the response of the infected embryos were observed and recorded (FIG. 7).

[7] = tested on: Glyphosate, Paraquat, and ACCase-Inhibitor Resistant Ryegrass; test: Control of resistant ryegrass by glyphosate and representative SU's; type: in vivo; conditions: glyphosate (SCAT) only or plus an SU
From the text: In this example, four different SU's were applied together with glyphosate (SCAT®) on the resistant ryegrass. The results as to the best SU partner for glyphosate were inconclusive, but the average benefit of applying an SU with glyphosate on herbicide resistant ryegrass was 39% (e.g., 34% control with glyphosate (SCAT®) only and 57-83% control with glyphosate (SCAT®) plus metsulfuron-methyl (BRUSH-OFF®), chlorsulfuron (GLEAN®), or triasulfuron (LOGRAN(®)).

[8] = tested on: non-transformed GS3 embryos; test: Glyphosate kill curve; type: cell-based, maize; conditions: about 40 days culture
Method: as §3

[9] = tested on: non-glyphosate resistant ryegrass; test: Control of ryegrass by glyphosate, metsulfuron-methyl and two additives; type: in vivo; conditions: 0.5 L ha-1 glyphosate (SCAT) alone
Method: The example was conducted on non-glyphosate resistant ryegrass. As provided in Table 23, all treatments that included glyphosate [180 g a.i. L ha^−1 (0.5 L glyphosate (SCAT®))] plus metsulfuron-methyl (BRUSH-OFFS®) (5 and 10 g ha^−1) gave 100% control of the ryegrass.

lead GAT7 soybean events = test: Field efficacy experiment JHM5G030, visual rating 7 and 14 days after treatment; type: in vivo; conditions: 7 DAS and 14 DAS; rimsulfuron 8.75 and 35.0 g/ha ai; Synchrony 35.03 and 140.11 g/ha ai; tribenuron 8.75 and 35.0 g/ha ai
Method: GAT round 7 (GAT7) transgenic events from construct PHP20163A were evaluated in 2004 for herbicide efficacy (JHM464TGATEFF) and yield potential (JHD4_GAT7 tests). […] 92M90 was selected as a STS variety to compare directly with the SAMS:ALS construct in the GAT7 events. Variety Jack was utilized as an untransformed negative control.
Selected lines were grown in experiment JHM5G030 in two replications of paired twelve foot rows, with eleven different treatments applied. Lines were blocked by event and treatment to provide side-by-side comparison of the eleven different spray treatments, with a 2 row border between each treatment to catch any spray drift. […] Lines were given a 100 (complete susceptibility, 100% damage) to 0 (complete tolerance, 0% damage) visual rating at 7 days after treatment and again at 14 days after treatment. Visual ratings were based upon overall degree of chlorosis, necrosis, and plant stunting (if evident) in the treated rows compared to the respective unsprayed control rows. Rating data at 7 and 14 days after spraying were subject to ANOVA and mean separation using SAS.

[10] = tested on: Soybeans comprising the lead GAT7 event and also having HRA; test: Greenhouse test confirming the field trial (Example 6B); type: in vivo, soybean; conditions: GAT/HRA Soybeans
From the text: Example 6B provides greenhouse data that confirms the field trial data provided above in Example 6A. Soybeans comprising the lead GAT7 event and also having HRA were used in the studies.

[11] = tested on: Wild Type soybeans (Jack); test: Postemergence herbicide test on soybeans, % visual injury; type: in vivo, soybean; conditions: non-transgenic control soybeans; 35 g/ha
Method: (§4) Four replications were performed for each treatment.
(§5) When possible, containers were thinned to two uniform plants.

GAT-HRA soybeans = test: as above; type: in vivo, soybean; conditions: 35 g/ha
Method: as §4, §5

Compound	Fresh Weight ([1]; weighed 2 weeks after treatment, untreated 76.4 g) [g]	% visual injury to corn at 3472 g/ha ([1]; Zea mays, post-emergence) [%]	Fresh Weight ([2]; weighed 2 weeks after treatment, untreated 98.8 g) [g]	Visual crop injury (%) at 3472 g/ha ([2]; Zea mays, post-emergence) [%]	plants killed [3]	transgenic plants with no deleterious symptoms [4]	state of plants after application ([5]; 1.5 lb acid equivalent per acre, 4-6 leaf stage, 2 weeks after application)	resistant callus initiation [6]	control [7] [%]	callus initiation ([8]; 0.5 mM glyphosate in medium)	callus growth ([8]; 1.0 and 2.0 mM glyphosate in medium)	plants that eventually died [9]	spray damage of the 4 GAT events compared to Jack and STS (lead GAT7 soybean events)	% Growth Reduction ([10]; Rimsulfuron 35 + Imazethapyr 0 g ai/ha, Treatment # 6) [%]	% Growth Reduction ([10]; Rimsulfuron 70 + Imazethapyr 0 g ai/ha, Treatment # 11) [%]	damage from the application ([5]; 16 g active ingredient/hectare, in the absence of glyphosate)	damage [11]	damage (GAT-HRA soybeans)
O=C(O)CNCP(=O)(O)O [Glyphosate, N-phosphonomethylglycine]	1.0	100	97.4	10	1 out of 16 plants (12%)	approximately 50%	dead	some embryos initiated resistant callus	34	about half of the embryos	very little callus growth	15 of the 16 plants (12%)	–	–	–	–	–	–
CCS(=O)(=O)c1cccnc1S(=O)(=O)NC(=O)Nc1nc(OC)cc(OC)n1 [Rimsulfuron, N-[[(4,6-dimethoxy-2-pyrimidinyl)amino]carbonyl]-3-(ethylsulfonyl)-2-pyridinesulfonamide]	–	–	–	–	–	–	–	–	–	–	–	–	significantly less spray damage compared to Jack and STS	67	73	severe damage	–	–
COC(=O)c1ccccc1S(=O)(=O)NC(=O)N(C)c1nc(C)nc(OC)n1 [Tribenuron-methyl, methyl 2-[[[[N-(4-methoxy-6-methyl-1,3,5-triazin-2-yl)-N-methylamino]carbonyl]-amino]sulfonyl]benzoate]	–	–	–	–	–	–	–	–	–	–	–	–	significantly less visual damage compared to STS and Jack	–	–	–	killed	no significant damage

Reference: patent US7973218B2, “Methods and compositions for controlling weeds” (Pioneer Hi-Bred International, Inc., priority 2005, dated 2011)
